Structures can show the parent of a compound that is named as a salt.
Biological target: T1, human 5-HT2C receptor (Homo sapiens, UniProt P28335)
T1 construct: expressed in transfected cells; host or cells: CHO (Chinese Hamster Ovary) cells; membrane preparation
T1 sequence (P28335 33-458): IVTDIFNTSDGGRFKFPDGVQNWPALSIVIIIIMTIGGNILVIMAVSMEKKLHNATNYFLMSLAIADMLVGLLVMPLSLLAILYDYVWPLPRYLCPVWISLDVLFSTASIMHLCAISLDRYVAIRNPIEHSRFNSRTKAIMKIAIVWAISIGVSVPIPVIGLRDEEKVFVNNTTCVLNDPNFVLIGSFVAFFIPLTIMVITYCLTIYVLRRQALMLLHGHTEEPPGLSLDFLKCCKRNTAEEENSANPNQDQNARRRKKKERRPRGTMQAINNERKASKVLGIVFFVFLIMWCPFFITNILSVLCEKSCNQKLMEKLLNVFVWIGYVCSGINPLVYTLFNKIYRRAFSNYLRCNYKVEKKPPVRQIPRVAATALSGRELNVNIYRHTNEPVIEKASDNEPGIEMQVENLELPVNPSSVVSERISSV
Experiment: 5-HT2C receptor binding, [125I]DOI displacement, membranes of transfected CHO cells
Conditions: read-out: 5-HT2C Binding Ki avg

| Structure (SMILES) | Ki |
| --- | --- |
| CN1CC(CN)Oc2c(-c3ccccc3)cccc21 (racemic) [Example 9, 1-(4-Methyl-8-phenyl-3,4-dihydro-2H-1,4-benzoxazin-2-yl)methanamine] | 0.161 µM |
| CCN1CC(CN)Oc2c(-c3ccccc3Cl)cccc21 (racemic) [Example 19, 1-[8-(2-Chlorophenyl)-4-ethyl-3,4-dihydro-2H-1,4-benzoxazin-2-yl]methanamine] | 0.0805 µM |
| CCCN1CC(CN)Oc2c(-c3ccccc3Cl)cccc21 (racemic) [Example 21, 1-[8-(2-Chlorophenyl)-4-propyl-3,4-dihydro-2H-1,4-benzoxazin-2-yl]methanamine] | 0.064 µM |
| NCC1COc2cc(Cl)cc(-c3ccccc3C(F)(F)F)c2N1 (racemic) [Example 25, 1-{7-Chloro-5-[2-(trifluoromethyl)phenyl]-3,4-dihydro-2H-1,4-benzoxazin-3-yl}methanamine] | 0.0682 µM |
| COc1ccc(-c2cc(Cl)cc3c2NC(CN)CO3)cc1 (racemic) [Example 26, 1-[7-Chloro-5-(4-methoxyphenyl)-3,4-dihydro-2H-1,4-benzoxazin-3-yl]methanamine] | 0.158 µM |
| COc1ccc(-c2cc(Cl)cc3c2N(C)C(CN)CO3)c(C)c1 (racemic) [Example 28, 1-[7-chloro-5-(4-methoxy-2-methylphenyl)-4-methyl-3,4-dihydro-2H-1,4-benzoxazin-3-yl]methanamine] | 1.12 µM |
| NCC1COc2cc(Cl)cc(-c3ccccc3)c2N1 (racemic) [Example 29, 1-(7-chloro-5-phenyl-3,4-dihydro-2H-1,4-benzoxazin-3-yl)methanamine] | 0.421 µM |
| Cc1ccccc1-c1cc(Cl)cc2c1NC(CN)CO2 (racemic) [Example 30, 1-[7-chloro-5-(2-methylphenyl)-3,4-dihydro-2H-1,4-benzoxazin-3-yl]methanamine] | 0.155 µM |

System: not given
Experiment: not given
Conditions: not given

| Structure (SMILES) | melting point |
| --- | --- |
| NCC1COc2cc(Cl)cc(-c3ccccc3C(F)(F)F)c2N1 (racemic) (as salt: hydrochloride) [Example 25, 1-{7-Chloro-5-[2-(trifluoromethyl)phenyl]-3,4-dihydro-2H-1,4-benzoxazin-3-yl}methanamine] | 102 °C (dec.) |
| COc1ccc(-c2cc(Cl)cc3c2NC(CN)CO3)cc1 (racemic) (as salt: hydrochloride) [Example 26, 1-[7-Chloro-5-(4-methoxyphenyl)-3,4-dihydro-2H-1,4-benzoxazin-3-yl]methanamine] | 101 °C (dec.) |
| COc1ccc(-c2cc(Cl)cc3c2NC(CN)CO3)c(C)c1 (racemic) (as salt: hydrochloride) [Example 27, 1-[7-chloro-5-(4-methoxy-2-methylphenyl)-3,4-dihydro-2H-1,4-benzoxazin-3-yl]methanamine] | 98 °C (dec.) |
| COc1ccc(-c2cc(Cl)cc3c2N(C)C(CN)CO3)c(C)c1 (racemic) (as salt: hydrochloride) [Example 28, 1-[7-chloro-5-(4-methoxy-2-methylphenyl)-4-methyl-3,4-dihydro-2H-1,4-benzoxazin-3-yl]methanamine] | 106 °C (dec.) |
| NCC1COc2cc(Cl)cc(-c3ccccc3)c2N1 (racemic) (as salt: hydrochloride) [Example 29, 1-(7-chloro-5-phenyl-3,4-dihydro-2H-1,4-benzoxazin-3-yl)methanamine] | 92 °C (dec.) |
| Cc1ccccc1-c1cc(Cl)cc2c1NC(CN)CO2 (racemic) (as salt: hydrochloride) [Example 30, 1-[7-chloro-5-(2-methylphenyl)-3,4-dihydro-2H-1,4-benzoxazin-3-yl]methanamine] | 86 °C (dec.) |
| Cc1ccc(-c2cc(Cl)cc3c2NC(CN)CO3)c(C(F)(F)F)c1 (racemic) (as salt: hydrochloride) [Example 31, 1-{7-chloro-5-[4-methyl-2-(trifluoromethyl)phenyl]-3,4-dihydro-2H-1,4-benzoxazin-3-yl}methanamine] | 98 °C (dec.) |
| COc1ccc(-c2cc(Cl)cc3c2NC(CN)CO3)c(Cl)c1 (racemic) (as salt: hydrochloride) [Example 32, 1-[7-chloro-5-(2-chloro-4-methoxyphenyl)-3,4-dihydro-2H-1,4-benzoxazin-3-yl]methanamine] | 105 °C (dec.) |
| NCC1COc2cc(Cl)cc(-c3ccccc3F)c2N1 (racemic) (as salt: hydrochloride) [Example 33, 1-[7-chloro-5-(2-fluorophenyl)-3,4-dihydro-2H-1,4-benzoxazin-3-yl]methanamine] | 95 °C (dec.) |
| COc1ccccc1-c1cc(Cl)cc2c1NC(CN)CO2 (racemic) (as salt: hydrochloride) [Example 34, 1-[7-chloro-5-(2-methoxyphenyl)-3,4-dihydro-2H-1,4-benzoxazin-3-yl]methanamine] | 100 °C (dec.) |
| Cc1cc(Cl)ccc1-c1cc(Cl)cc2c1NC(CN)CO2 (racemic) (as salt: hydrochloride) [Example 35, 1-[7-chloro-5-(4-chloro-2-methylphenyl)-3,4-dihydro-2H-1,4-benzoxazin-3-yl]methanamine] | 102 °C (dec.) |
| NCC1COc2cc(Cl)cc(-c3ccccc3Cl)c2N1 (racemic) (as salt: hydrochloride) [Example 36, 1-[7-chloro-5-(2-chlorophenyl)-3,4-dihydro-2H-1,4-benzoxazin-3-yl]methanamine] | 108 °C (dec.) |
| NCC1COc2cc(Cl)cc(-c3ccc(Cl)cc3C(F)(F)F)c2N1 (racemic) (as salt: hydrochloride) [Example 37, 1-{7-chloro-5-[4-chloro-2-(trifluoromethyl)phenyl]-3,4-dihydro-2H-1,4-benzoxazin-3-yl}methanamine] | 95 °C (dec.) |
| NCC1COc2cc(Cl)cc(-c3ccc(C(F)(F)F)cc3C(F)(F)F)c2N1 (racemic) (as salt: hydrochloride) [Example 38, 1-{5-[2,4-bis(trifluoromethyl)phenyl]-7-chloro-3,4-dihydro-2H-1,4-benzoxazin-3-yl}methanamine] | 98 °C (dec.) |
| NCC1COc2cc(F)cc(-c3ccccc3C(F)(F)F)c2N1 (racemic) (as salt: hydrochloride) [Example 55, 1-{7-fluoro-5-[2-(trifluoromethyl)phenyl]-3,4-dihydro-2H-1,4-benzoxazin-3-yl}methanamine] | 99 °C (dec.) |
| COc1ccc(-c2cc(F)cc3c2NC(CN)CO3)c(C)c1 (racemic) (as salt: hydrochloride) [Example 56, 1-[7-fluoro-5-(4-methoxy-2-methylphenyl)-3,4-dihydro-2H-1,4-benzoxazin-3-yl]methanamine] | 82 °C (dec.) |
| NCC1COc2cc(F)cc(-c3ccccc3Cl)c2N1 (racemic) (as salt: hydrochloride) [Example 57, 1-[5-(2-chlorophenyl)-7-fluoro-3,4-dihydro-2H-1,4-benzoxazin-3-yl]methanamine] | 86 °C (dec.) |
| Cc1ccccc1-c1cc(F)cc2c1NC(CN)CO2 (racemic) (as salt: hydrochloride) [Example 58, 1-[7-fluoro-5-(2-methylphenyl)-3,4-dihydro-2H-1,4-benzoxazin-3-yl]methanamine] | 78 °C (dec.) |
| COc1ccc(-c2cc(F)cc3c2NC(CN)CO3)c(Cl)c1 (racemic) (as salt: hydrochloride) [Example 59, 1-[5-(2-chloro-4-methoxyphenyl)-7-fluoro-3,4-dihydro-2H-1,4-benzoxazin-3-yl]methanamine] | 84 °C (dec.) |
| Cc1ccc(-c2cc(F)cc3c2NC(CN)CO3)c(C(F)(F)F)c1 (racemic) (as salt: hydrochloride) [Example 60, 1-{7-fluoro-5-[4-methyl-2-(trifluoromethyl)phenyl]-3,4-dihydro-2H-1,4-benzoxazin-3-yl}methanamine] | 86 °C (dec.) |
| COc1ccc(-c2cc(F)cc3c2NC(CN)CO3)cc1 (racemic) (as salt: hydrochloride) [Example 61, 1-[7-fluoro-5-(4-methoxyphenyl)-3,4-dihydro-2H-1,4-benzoxazin-3-yl]methanamine] | 72 °C (dec.) |
| NCC1COc2cc(F)cc(-c3ccccc3F)c2N1 (racemic) (as salt: hydrochloride) [Example 62, 1-[7-fluoro-5-(2-fluorophenyl)-3,4-dihydro-2H-1,4-benzoxazin-3-yl]methanamine] | 77 °C (dec.) |
| Cc1cc(Cl)ccc1-c1cc(F)cc2c1NC(CN)CO2 (racemic) (as salt: hydrochloride) [Example 63, 1-[5-(4-chloro-2-methylphenyl)-7-fluoro-3,4-dihydro-2H-1,4-benzoxazin-3-yl]methanamine] | 90 °C (dec.) |
| COc1ccccc1-c1cc(F)cc2c1NC(CN)CO2 (racemic) (as salt: hydrochloride) [Example 64, 1-[7-fluoro-5-(2-methoxyphenyl)-3,4-dihydro-2H-1,4-benzoxazin-3-yl]methanamine] | 84 °C (dec.) |
| NCC1COc2cc(F)cc(-c3cccc(Cl)c3)c2N1 (racemic) (as salt: hydrochloride) [Example 65, 1-[5-(3-chlorophenyl)-7-fluoro-3,4-dihydro-2H-1,4-benzoxazin-3-yl]methanamine] | 76 °C (dec.) |
| CN1CC(CN)Oc2c(-c3cccc(Cl)c3)cccc21 (racemic) (as salt: hydrochloride) [Example 66, 1-[8-(3-chlorophenyl)-4-methyl-3,4-dihydro-2H-1,4-benzoxazin-2-yl]methanamine] | 134 °C (dec.) |
